Square brackets hold non-standard residues; d marks the D form. Ends that are not written are not given here. Lys(Me3) = C[N+](C)(C)CCCC[C@H](N)C(=O)O
Tests used:
[1] = target: human PHF19-Tudor (residues 37–95) (human) (UniProt Q5T6S3); assay: NMR titration
human PHF19-Tudor = human PHF19-Tudor (Homo sapiens, UniProt Q5T6S3); assay: NMR chemical shift titration of Phf19-Tudor with histone H3 peptides; assay type: binding; settings: for Kd increased by a factor (alanine mutant peptide vs wild-type peptide): NMR, point mutations in histone H3 amino acids 37–41
[2] = target: human PHF19-Tudor (residues 37–95) (human, UniProt Q5T6S3 37-95); assay: NMR titration

## 11-mer H3K36me3 peptide (31-ATGGVKme3KPHRY-41)
[1]
  Kd: 29 µM

## 31-ATGGV-Kme3-K-37 [H3_31–36]
Human PHF19-Tudor; NMR titration
  binding to Phf19-Tudor (in words): unable to bind

## 34-GV-Kme3-APHRY-41 [H3 K37A]
Human PHF19-Tudor
  Kd increased by a factor (alanine mutant peptide vs wild-type peptide): 2.1

## H3K36me2-containing peptide (NMR)
[1]
  Kd: 295 µM

## 34-GV-Kme3-KPHRA-41 [H3 Y41A]
Human PHF19-Tudor
  Kd increased by a factor (alanine mutant peptide vs wild-type peptide): 1.6

## 34GV-Kme3-KPHAY-41 [H3 R10A]
Human PHF19-Tudor
  Kd increased by a factor (alanine mutant peptide vs wild-type peptide): did not increase

## GV[Lys(Me3)]KPHRY [short H3K36me3 peptide (34-GV-Kme3-KPHRY-41; called the 7-mer histone H3_(35–41) in the results)]
[2]
  Kd: 44 µM

Reference: PMC3926938 (Nature structural & molecular biology, 2012)
